Key:
PRMT5 [1] = target: T1, PRMT5 (Homo sapiens, UniProt O14744); assay: PRMT5 biochemical IC50 assay with SAM as cofactor; settings: PRMT5, SAM as cofactor; read-out: SAM IC50
T1 construct: purchased Viva (custom protein)

[2] = test system: HAP1 MTAP-deleted cell line; assay: SDMA in-cell western assay, HAP1 MTAP-deleted; type: cell-based; settings: for IC50: Homo sapiens, HAP1, SDMA in-cell western, HAP1 MTAP-deleted; for MTAP intact/deleted ratio: SDMA in-cell western
In short: (§1)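 Isogenic HAP1 pair: the MTAP-intact line expresses endogenous MTAP, and the deleted line is MTAP-null. Symmetric dimethylarginine was detected by in-cell western and IC50 values derived for each line.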

PRMT5 [3] = target: T1, PRMT5; assay: PRMT5 biochemical IC50 assay with no cofactor; settings: PRMT5, no cofactor
From the text: Table 1 indicates IC50 values (μM) against PRMT5 for exemplary compounds in the presence of SAM as cofactor, with no cofactor, and with MTA as cofactor, respectively (columns 4-6). […] Ki values can be calculated from the IC50 values as described in the Examples section. As detailed in the Examples section, for the assay performed in the presence of SAM, IC50=Ki×1.5 (Ki=IC50/1.5).

[4] = test system: HAP1 MTAP-intact cell line; assay: SDMA in-cell western assay, HAP1 MTAP-intact; type: cell-based; settings: Homo sapiens, HAP1, SDMA in-cell western, HAP1 MTAP-intact; read-out: MTAP HAP1 intact IC50
In short: as §1

[5] = test system: HAP1 MTAP-deleted cell line; assay: Viability assay, MTAP-deleted cell line; type: cell-based; settings: Homo sapiens, read-out: HAP1 MTAP deleted viability
From the text: Table 1 additionally indicates IC50 values in a viability assay for the MTAP-deleted cell line (column 10), indicating the effect of treatment with compound on cell survival.

PRMT5 [6] = target: T1, PRMT5; assay: PRMT5 biochemical IC50 assay with MTA as cofactor; settings: PRMT5, MTA as cofactor; read-out: MTA IC50
[7] = read-out: HAP1 MTAP deleted IC50
[8] = IC50 ratio HAP1 MTAP-intact / HAP1 MTAP-deleted
[9] = HAP1, viability assay, MTAP-deleted cell line
[10] = read-out: HAP 1 MTAP deleted IC50
[11] = HAP1, viability IC50, MTAP-deleted cell line
[12] = read-out: No Cofactor/ rel IC50
[13] = HAP1, viability, HAP1 MTAP-deleted cell line

T1 sequence (O14744 whole entry): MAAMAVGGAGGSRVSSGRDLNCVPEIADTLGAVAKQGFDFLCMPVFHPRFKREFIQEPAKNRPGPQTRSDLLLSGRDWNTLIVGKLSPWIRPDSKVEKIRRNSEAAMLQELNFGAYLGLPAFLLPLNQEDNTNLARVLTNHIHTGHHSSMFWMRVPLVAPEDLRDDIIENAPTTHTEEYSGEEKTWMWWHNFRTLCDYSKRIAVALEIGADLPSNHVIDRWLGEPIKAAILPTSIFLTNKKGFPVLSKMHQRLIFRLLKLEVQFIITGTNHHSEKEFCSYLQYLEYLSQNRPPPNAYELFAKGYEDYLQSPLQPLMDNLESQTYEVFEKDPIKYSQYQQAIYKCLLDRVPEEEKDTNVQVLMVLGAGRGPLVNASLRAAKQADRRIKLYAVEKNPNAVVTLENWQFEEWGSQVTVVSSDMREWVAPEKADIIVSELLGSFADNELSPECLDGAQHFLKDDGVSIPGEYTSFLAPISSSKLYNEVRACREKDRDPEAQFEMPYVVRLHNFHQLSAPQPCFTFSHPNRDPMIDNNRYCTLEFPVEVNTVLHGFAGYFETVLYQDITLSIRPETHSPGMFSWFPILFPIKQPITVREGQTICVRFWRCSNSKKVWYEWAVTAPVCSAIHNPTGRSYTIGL
T1 sequence (Q9BQA1 whole entry partner): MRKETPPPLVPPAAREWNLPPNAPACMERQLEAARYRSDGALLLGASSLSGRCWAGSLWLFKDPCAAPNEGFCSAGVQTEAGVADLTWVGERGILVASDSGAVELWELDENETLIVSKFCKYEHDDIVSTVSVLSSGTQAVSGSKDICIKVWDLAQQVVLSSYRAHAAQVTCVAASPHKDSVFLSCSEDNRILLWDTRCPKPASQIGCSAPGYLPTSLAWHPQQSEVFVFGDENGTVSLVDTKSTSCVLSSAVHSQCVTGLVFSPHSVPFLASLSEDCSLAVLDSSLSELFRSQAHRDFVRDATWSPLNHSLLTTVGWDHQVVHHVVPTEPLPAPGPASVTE

Compound	IC50 (PRMT5 [1]) [nM]	IC50 [2, 7] [nM]	MTAP intact/deleted ratio [2, 8]	IC50 (PRMT5 [3]; read-out: No Cofactor/rel IC50) [nM]	IC50 [4] [nM]	IC50 [5, 9] [µM]	IC50 (PRMT5 [6]) [nM]	IC50 [2, 10] [nM]	IC50 [5, 11] [µM]	IC50 (PRMT5 [3]; [12]) [nM]	IC50 ([5]; HAP1, viability assay, HAP1 MTAP-deleted) [µM]	IC50 [5, 13] [µM]	MTAP intact/deleted ratio ([2]; IC50 ratio HAP1 MTAP-intact vs HAP1 MTAP-deleted)
C[C@@H]1CC[C@@H](c2ccc(F)cc2)N(C(=O)C(=O)Nc2cncc(C(N)=O)c2)C1 [Compound 302, 5-[[2-[(2S,5R)-2-(4-fluorophenyl)-5-methyl-1-piperidyl]-2-oxo-acetyl]amino]pyridine-3-carboxamide]	> 500	> 1000	C (an IC50 ratio of less than 3 fold)	> 500	> 1000	> 10	> 500	–	–	–	–	–	–
Cc1cc(NC(=O)C(=O)N2C[C@H](C)CC[C@H]2c2ccc3c(c2)CNC3=O)cnc1N (single isomer, unassigned) [Compound 581]	< 50	–	A (an IC50 ratio greater than or equal to 10 fold)	50 to 500	100 to 1000	–	50 to 500	< 100	1 to 10	–	–	–	–
CNC(=O)c1cccc([C@H]2CC[C@H](C)CN2C(=O)C(=O)Nc2cncc(C)c2)c1 (racemic) [Compound 48, N-methyl-3-[(2R,5S)-5-methyl-1-[2-[(5-methyl-3-pyridyl)amino]-2-oxo-acetyl]-2-piperidyl]benzamide]	50 to 500	–	C (an IC50 ratio of less than 3 fold)	–	> 1000	> 10	50 to 500	> 1000	–	50 to 500	–	–	–
Cc1cc(NC(=O)C(=O)N2CCCC[C@H]2C(C)C)cnc1N (single isomer, unassigned) [Compound 192]	50 to 500	100 to 1000	A (an IC50 ratio greater than or equal to 10 fold)	50 to 500	> 1000	> 10	< 50	–	–	–	–	–	–
C[C@@H]1CC[C@@H](c2ccc3c(c2)CCO3)N(C(=O)C(=O)Nc2cncc(C(N)=O)c2)C1 (racemic) [Compound 282, rac-5-{2-[(2R,5S)-2-(2,3-Dihydro-1-benzofuran-5-yl)-5-methylpiperidin-1-yl]-2-oxoacetamido}pyridine-3-carboxamide]	> 500	100 to 1000	A (an IC50 ratio greater than or equal to 10 fold)	> 500	> 1000	> 10	50 to 500	–	–	–	–	–	–
Cc1cc(NC(=O)C(=O)N2C[C@@H](C)CC[C@@H]2[C@H]2CC[C@@H](C(C)(C)C)CC2)cnc1N (single isomer, unassigned) [Compound 290]	> 500	> 1000	C (an IC50 ratio of less than 3 fold)	> 500	> 1000	> 10	> 500	–	–	–	–	–	–
Cc1ccc([C@H]2CC(F)(F)[C@H](C)CN2C(=O)C(=O)Nc2cncc(C(N)=O)c2)cn1 (single isomer, unassigned) [Compound 974]	50 to 500	–	A (an IC50 ratio greater than or equal to 10 fold)	50 to 500	> 1000	1 to 10	< 50	< 100	–	–	–	–	–
Cc1cc(NC(=O)C(=O)N2C[C@H](C)CC[C@H]2c2cc3[nH]ncc3s2)cnc1N (racemic) [Compound 743, N-(6-amino-5-methylpyridin-3-yl)-2-(5-methyl-2-(1H-thieno[3,2-c]pyrazol-5-yl)piperidin-1-yl)-2-oxoacetamide]	50 to 500	< 100	A (an IC50 ratio greater than or equal to 10 fold)	50 to 500	100 to 1000	–	50 to 500	–	–	–	< 1	–	–
COc1ncc(NC(=O)C(=O)N2C[C@H](C)CC[C@H]2c2ccn(-c3cc[nH]n3)n2)cc1C(N)=O (single isomer, unassigned) [Compound 894]	50 to 500	–	A (an IC50 ratio greater than or equal to 10 fold)	50 to 500	> 1000	1 to 10	< 50	< 100	–	–	–	–	–
CCc1cc(NC(=O)C(=O)N2C[C@@H](C)CC[C@@H]2c2ccc(N3CCN(CC)CC3)c(C)c2)cnc1N (racemic) [Compound 1376, N-(6-Amino-5-ethyl-3-pyridyl)-2-oxo-2-[rac-(2R,5S)-2-[4-(4-ethylpiperazin-1-yl)-3-methyl-phenyl]-5-methyl-1-piperidyl]acetamide]	50 to 500	–	A (an IC50 ratio greater than or equal to 10 fold)	–	100 to 1000	–	< 50	< 100	–	< 50	–	< 1	–
Cc1ncc(NC(=O)C(=O)N2C[C@H](C)CC[C@H]2c2ccc(F)cc2)cc1Cl (racemic) [Compound 622, N-(5-chloro-6-methyl-3-pyridyl)-2-[(2S,5R)-2-(4-fluorophenyl)-5-methyl-1-piperidyl]-2-oxo-acetamide]	50 to 500	–	B (an IC50 ratio greater than or equal to 3 fold but lower than 10 fold)	50 to 500	> 1000	–	50 to 500	> 1000	> 10	–	–	–	–
CC1(C)CCC(c2ccccc2)N(C(=O)C(=O)Nc2cncc(C(N)=O)c2)C1 (stereo not drawn) [Compound 45, 5-(2-(5,5-dimethyl-2-phenylpiperidin-1-yl)-2-oxoacetamido)nicotinamide]	> 500	–	A (an IC50 ratio greater than or equal to 10 fold)	–	> 1000	> 10	50 to 500	100 to 1000	–	> 500	–	–	–
Cc1csc(C2CCCCN2C(=O)C(=O)Nc2cnc(N)c(C)c2)n1 (stereo not drawn) [Compound 49, N-(6-Amino-5-methyl-3-pyridyl)-2-[2-(4-methylthiazol-2-yl)-1-piperidyl]-2-oxo-acetamide]	50 to 500	–	A (an IC50 ratio greater than or equal to 10 fold)	–	> 1000	> 10	< 50	100 to 1000	–	50 to 500	–	–	–
C[C@H]1CC[C@H](c2ccc3sc(C4CCN(C)CC4)nc3c2)N(C(=O)C(=O)Nc2cnc(N)c(C(F)(F)F)c2)C1 [Compound 1117, N-(6-amino-5-(trifluoromethyl)pyridin-3-yl)-2-((2R,5S)-5-methyl-2-(2-(1-methylpiperidin-4-yl)benzo[d]thiazol-5-yl)piperidin-1-yl)-2-oxoacetamide]	< 50	< 100	–	< 50	100 to 1000	< 1	< 50	–	–	–	–	–	A (an IC50 ratio greater than or equal to 10 fold)
C[C@@H]1CN(C(=O)C(=O)Nc2cncc(C(N)=O)c2)[C@@H](c2ccccc2)CC1(F)F (single isomer, unassigned) [Compound 473]	> 500	> 1000	C (an IC50 ratio of less than 3 fold)	> 500	> 1000	> 10	> 500	–	–	–	–	–	–
Cc1cc(NC(=O)C(=O)N2C[C@@H](C)CC[C@@H]2c2ccc3sc(CCN4CCCC4)nc3c2)cnc1N [Compound 1296, N-(6-amino-5-methylpyridin-3-yl)-2-((2R,5S)-5-methyl-2-(2-(2-(pyrrolidin-1-yl)ethyl)benzo[d]thiazol-5-yl)piperidin-1-yl)-2-oxoacetamide]	< 50	–	A (an IC50 ratio greater than or equal to 10 fold)	–	< 100	–	< 50	< 100	–	< 50	–	< 1	–
Cc1cc(NC(=O)C(=O)N2C[C@H](C)CC[C@H]2[C@H]2CC[C@H](C(C)(C)C)CC2)cnc1N (single isomer, unassigned) [Compound 260]	50 to 500	100 to 1000	C (an IC50 ratio of less than 3 fold)	50 to 500	> 1000	1 to 10	< 50	–	–	–	–	–	–
Cc1cc(NC(=O)C(=O)N2C[C@H](C)CC[C@H]2c2cc(F)c3[nH]ncc3c2)cnc1N (single isomer, unassigned) [Compound 1191]	> 500	> 1000	–	> 500	> 1000	> 10	> 500	–	–	–	–	–	–
Cc1cc(NC(=O)C(=O)N2CCCC[C@H]2C2CCCCC2)cnc1N (single isomer, unassigned) [Compound 34]	> 500	–	C (an IC50 ratio of less than 3 fold)	–	> 1000	> 10	> 500	> 1000	–	> 500	–	–	–

From patent US11999727B2 (Tango Therapeutics, Inc., priority 2020, dated 2024)
